Experiments:
BALB/c male mice = assay type: in vivo, mouse; conditions: relative index, non-administered control group = 1, 10 mg/kg B.W./day by gavage, 7 days
Description: Five-week-old BALB/c male mice (n=6) were fed for 1 week and then used in this experiment. A commercially-available feed was used, and the mice' access to the feed was unrestricted, and tap water was provided. γ-Glutamylcysteine was dissolved in sterilized physiological saline, and gavage administration was performed at 10 mg/kg B.W./day. The administration period was 7 days. During the administration period, the body weights were measured every day immediately before the administration to determine the dosage. There was no difference between the body weights of the different groups. On day 7 after the start of the test, a necropsy examination was performed. Anesthesia was performed by interperitoneal administration with a pentobarbital formulation. At laparotomy, blood was collected from the abdominal aorta. The small intestinal contents were also collected. Serum was collected from the blood, and the total IgA and total IgG concentrations were measured using an ELISA kit. The intestinal contents were diluted 10-fold with PBS and suspended sufficiently, and centrifugation was then performed to separate the […]. The total IgA concentration was measured by ELISA in the same way as in Example 1. In the table, γ-EC represents γ-glutamylcysteine. […] However, the amounts of serum IgA and serum IgG were found not to increase, and it was confirmed that the peptide was able to stimulate the immunoactivity in the intestinal mucosa.

mouse spleen cells [1] = test: Antibody production by mouse spleen cells stimulated with LPS (ELISA of culture supernatant); assay type: cell-based; conditions: 5 μg LPS, cultured 5 days, versus phosphate buffer control, FIG. 1
Description: Six- to eight-week-old BALB mice (female) were fed for 1 week a commercially-available solid feed and provided with tap water. To evaluate the influence of γ-glutamylcysteine on antibody production, a culture system using mouse spleen cells was employed. The spleen cells were collected from the BALB-c mice (n=3), then washed and suspended in RPMI 1640 medium (10% FCS, 50 U/ml penicillin, 50 μg/ml streptomycin). The cells were adjusted so that there were 1×10^6 cells per 48-well culture plate, and then either γ-glutamylcysteine or glutathione (purchased from Sigma) each dissolved in a phosphate buffer, was added to the plates. A phosphate buffer was added to plates as a control. Then, the cells were stimulated with 5 μg of LPS (lipopolysaccharide, obtained from Sigma). […] The cells were then cultured in a CO2 incubator at 37° C. for 5 days, and the amounts of the antibodies in the supernatant were analyzed. The amounts of IgA and IgG were measured by the ELISA method. […] The reaction was stopped with 100 μl of 3 M NaOH/well, and the absorbance was measured at 405 nm. IgA was measured in accordance with the same method as for IgG except that a rat anti-mouse IgA antibody (BD Biosciences) was used as the immobilized antibody. […]

mouse spleen cells [2] = test: Antibody production by mouse spleen cells stimulated with ConA (ELISA of culture supernatant); assay type: cell-based; conditions: 0.5 μg ConA, cultured 5 days, versus control, FIG. 3
Description: Six- to eight-week-old BALB mice (female) were fed for 1 week a commercially-available solid feed and provided with tap water. To evaluate the influence of γ-glutamylcysteine on antibody production, a culture system using mouse spleen cells was employed. The spleen cells were collected from the BALB-c mice (n=3), then washed and suspended in RPMI 1640 medium (10% FCS, 50 U/ml penicillin, 50 μg/ml streptomycin). The cells were adjusted so that there were 1×10^6 cells per 48-well culture plate, and then either γ-glutamylcysteine or glutathione (purchased from Sigma) each dissolved in a phosphate buffer, was added to the plates. A phosphate buffer was added to plates as a control. […] The cells were again adjusted so that there were 1×10^6 cells per 48-well culture plate, and then stimulated with 0.5 μg of ConA (concanavalin A) in the presence or absence of γ-glutamylcysteine or glutathione. The cells were then cultured in a CO2 incubator at 37° C. for 5 days, and the amounts of the antibodies in the supernatant were analyzed. The amounts of IgA and IgG were measured by the ELISA method. The method for measuring IgG is described below. […] The reaction was stopped with 100 μl of 3 M NaOH/well, and the absorbance was measured at 405 nm. IgA was measured in accordance with the same method as for IgG except that a rat anti-mouse IgA antibody (BD Biosciences) was used as the immobilized antibody. […]

**Q.** With `N[C@@H](CCC(=O)N[C@@H](CS)C(=O)O)C(=O)O` [γ-glutamylcysteine, γ-Glutamylcysteine] as the molecule, how does the “Serum IgA” value (BALB/c male mice) read?
**A.** Its value is 0.3.

**Q.** What about the “Serum IgG” value (BALB/c male mice) of the same molecule?
**A.** The value was 0.6.

**Q.** What about the “Small intestine IgA” value (BALB/c male mice; total IgA in small intestinal contents) of the same molecule?
**A.** The value was 3.0.

**Q.** And the “amounts of IgA produced” value (mouse spleen cells [1])?
**A.** The value was “increase production of IgA as compared with glutathione”.

**Q.** And the “amounts of IgA produced” value (mouse spleen cells [2])?
**A.** The value was “increase production of IgA as compared with glutathione”.

Reference: patent US20110034397A1, “INTESTINAL IMMUNE SYSTEM STIMULATOR” (priority 2008, published 2011)
